Results: patent publication US20240181022A1, “AMURINS LYSINS, AND LYSIN-ANTIMICROBIAL PEPTIDE (AMP) CONSTRUCTS ACTIVE AGAINST GRAM-NEGATIVE BACTERIA” (priority 2021, published 2024)
Where “and” joins values, the source holds several entries; their conditions need not be identical. Equal entries are not always repeated. Where no end group is shown, it is not given here. [ ]: non-standard residue; d: D form.

Key:
P. aeruginosa = test: Checkerboard synergy assay (FICI) with antibiotics against P. aeruginosa; assay type: cell-based, Pseudomonas aeruginosa; settings: for Antibiotic MIC (single agent): P. aeruginosa strain AR-769; for Antibiotic FIC / Antibiotic MIC (combo): P. aeruginosa strain AR-769, in combination with GN370; for Antibiotic MIC (combo): in µg/mL
Description: Any known method to assess MIC may be used.
Checkerboards are constructed by first preparing columns of e.g., a 96-well polypropylene microtiter plate, wherein each well has the same amount of antibiotic diluted 2-fold along the horizontal axis. […] Bacteria are added to the drug combinations at concentrations of 1×10^5 […] in CAA, for example, with or without human serum or pulmonary surfactant. […] Summation fractional inhibitory concentrations (ΣFICs) are calculated for each drug and the minimum ΣFIC value (ΣFICmin) is used to determine the effect of the Chp peptide/antibiotic combination.
The synergy of GN370 with meropenem was evaluated against 3 different strains of P. aeruginosa and three different strains of B. cenocepacia.
GN370 was further tested in combination with up to seven additional antibiotics (in addition to meropenem) against a variety of bacterial strains, including P. aeruginosa, A. baumannii, E. coli, E. cloacae, and K. pneumoniae. GN370 and the subject antibiotics were tested in a checkerboard assay format, and FICI values were determined, wherein ≤0.5 indicates synergy, >0.5-≤1 indicates additive; and >1 indicates indifferent.

M. tuberculosis = assay type: cell-based, Mycobacterium tuberculosis; settings: M. tuberculosis (ATCC 35817); (ADC, T) media
M. intracellulare = test: MIC against M. intracellulare; assay type: cell-based, Mycobacterium intracellulare; settings: M. intracellulare (ATCC 13950); CAAT media
M. smegmatis = test: MIC against M. smegmatis; assay type: cell-based, Mycobacterium smegmatis; settings: M. smegmatis (MC 155); CAAT media
M. fortuitum = test: MIC against M. fortuitum; assay type: cell-based, Mycobacterium fortuitum; settings: M. fortuitum (ATCC 6841); CAAT media
M. avium = test: MIC against M. avium; assay type: cell-based, Mycobacterium avium; settings: M. avium (ATCC 700898); CAAT media
M. kansasii = test: MIC against M. kansasii; assay type: cell-based, Mycobacterium kansasii; settings: M. kansasi (ATCC 12478); CAAT media
M. scrofulaceum = test: MIC against M. scrofulaceum; assay type: cell-based, Mycobacterium scrofulaceum; settings: M. scrofulaceum (ATCC 19981); CAAT media

| Molecule | Antibiotic MIC (single agent) (P. aeruginosa) [µg/mL] | Antibiotic FIC (P. aeruginosa) | Antibiotic MIC (combo) (P. aeruginosa) | MIC (M. tuberculosis) [µg/mL] | MIC (M. intracellulare) [µg/mL] | MIC (M. smegmatis) [µg/mL] | MIC (M. fortuitum) [µg/mL] | MIC (M. avium) [Tg/mL] | MIC (M. kansasii) [µg/mL] | MIC (M. scrofulaceum) [µg/mL] |
| --- | --- | --- | --- | --- | --- | --- | --- | --- | --- | --- |
| CO/N=C(\C(=O)N[C@@H]1C(=O)N2C(C(=O)[O-])=C(C[N+]3(C)CCCC3)CS[C@H]12)c1csc(N)n1 [Cefepime] | 256 | 0.25 and 0.125 | 64 and 32 |  |  |  |  |  |  |  |
| CC(C)(O/N=C(\C(=O)N[C@@H]1C(=O)N2C(C(=O)[O-])=C(C[n+]3ccccc3)CS[C@H]12)c1csc(N)n1)C(=O)O [Ceftazidime] | 512 | 1 | 512 |  |  |  |  |  |  |  |
| AGT915: SEQ ID NO: 63, Marine gokushovirus (MRRYNVNKGKSAKKFRKQVSKTKVANLRSNPMRGGWRL; listed as Marine gokushovirus) |  |  |  | 4 | >64 | 1 | 1 | >64 | 1 | >64 |
| ALCES1: SEQ ID NO: 59, Alces alces faeces associated microvirus (MAKKIRNKARDRRIFTRTASRMHKANRTPRFMRGGIRL; Alces alces faeces associated microvirus MP12 5423) |  |  |  | 8 | 2 | 2 | 4 | 8 | 2 | 2 |
| AVQ206: SEQ ID NO: 60, Gokushovirinae environmental samples (MRRKKMSRGKSKKLFRRTAKRVHRKNLRARPMRGGIRM) |  |  |  | 8 | 4 | 16 | 2 | 1 | 2 | 4 |
| Chp1: Chp peptide, SEQ ID NO: 1, Phage Chp1 (MVRRRRLRRRISRRIFRRTVARVGRRRRSFRGGIRF; Chlamydia virus Chp1) |  |  |  | 32 | 4 | 16 | 16 | 4 | 4 | 4 |
| Chp4: Chp peptide, SEQ ID NO: 4, Phage 4 (MARRYRLSRRRSRRLFSRTALRMHRRNRLRRIMRGGIRF; Chlamydia phage 4) |  |  |  | 16 | 1 | 4 | 4 | 1 | >0.125 | 2 |
| Chp8: Chp peptide, SEQ ID NO: 8 (MSKKRSRMSRRRSKKLFSKTALRTKSVNTRPPMRGGFRF; listed as Chlamydia trachomatis) |  |  |  | 8 | 4 | 8 | 2 | 8 | 4 | 4 |
| Chp9: Chp peptide, SEQ ID NO: 9 (MSLRRHKLSRKASKRIFRKGASRTKTLNTRATPMRGGFRI; listed as Chlamydia trachomatis) |  |  |  | 8 | 4 | 8 | 4 | >64 | 8 | 8 |
| Chp10: Chp peptide, SEQ ID NO: 10 (MKRRKLSKKKSRKIFTRGAVNVKKRNLRARPMRGGFRI; listed as Chlamydia trachomatis) |  |  |  | 8 | 0.5 | 1 | 1 | 0.5 | 4 | 0.5 |
| Ecp2: SEQ ID NO: 18, hypothetical protein (E. coli) (MARSRRRMSKRSSRRSFRKYAKSHKKNFKARSMRGGIRL; listed as Escherichia coli) |  |  |  | 4 | 8 | 8 | 4 | 2 | 2 | 4 |
| Ecp3-M1: Modified variant of Ecp3, SEQ ID NO: 100 (MA[dR]S[dR][dR][dR]MS[dK][dR]SS[dR][dR]SF[dR][dK]YA[dK]TH[dK][dK]NF[dK]A[dR]SM[dR]GGI[dR]L) |  |  |  | 8 | 8 | 1 | 8 | 0.5 | 2 | 2 |
| Ecp3: SEQ ID NO: 55, nonstructural protein (Escherichia) (MARSRRRMSKRSSRRSFRKYAKTHKKNFKARSMRGGIRL; listed as Escherichia sp.) |  |  |  | 8 | 8 | 8 | 2 | 1 | 2 | 2 |
| Fen7875: SEQ ID NO: 65, Gokushovirinae Fen7875_21 (MKPLKRKPVQKARSAAKFRRNVSTVKAANMAVKPMRGGWRF) |  |  |  | 4 | 8 | 16 | 8 | 2 | 32 | 16 |
| Gkh1: SEQ ID NO: 13, Marine gokushovirus (MRRPRKMNYKKSKRMFSRTAARTHRKNSLRGSRPMRGGIRL; listed as Marine gokushovirus) |  |  |  | 8 | 4 | 4 | 1 | 4 | 2 | 8 |
| HH3930: SEQ ID NO: 64, Richelia intracellularis HH01 (MRPVKRSRVNKARSAGKFRKQVGKTKMANLRSNPMRGGWRL) |  |  |  | 4 | 16 | 16 | 8 | 4 | 32 | 16 |
| Spi1: SEQ ID NO: 25, Spiroplasma virus SpV4 Orf9 (MAYRGFKTSRVVKHRVRRRWFNHRRRYR; Spiroplasma virus SpV4) |  |  |  | 16 | 4 | 16 | 8 | >64 | 0.5 | 2 |
| Spi2-M1: Modified variant of Spi2, SEQ ID NO: 99 (M[dR][dR][dK]V[dK]NT[dK][dR]HQW[dR]LTHSA[dR]SI[dK][dR]ANIMPSNP[dR]GG[dR][dR]) |  |  |  | 8 | >64 | 1 | 4 | >64 | 4 | 16 |
| Spi2: SEQ ID: 26, Spiroplasma virus SpV4 Orf8 (MRRKVKNTKRHQWRLTHSARSIKRANIMPSNPRGGRRF; Spiroplasma virus SpV4) |  |  |  | 16 | >64 | 4 | 4 | >64 | 1 | 8 |
| Unp1: SEQ ID NO: 15, unnamed protein product (uncultured bacterium) (MKMRKRTDKRVFTRTAAKSKKVNIAPKIFRGGIRL) |  |  |  | 4 | 32 | 2 | 8 | 1 | 8 | 8 |
| Unp2: SEQ ID NO: 20, unnamed protein product (MRRRRLSRRTSRRFFRKGLKVRRRNLRARPMRGGFRI) |  |  |  | 8 | 1 | 4 | 2 | 0.5 | 2 | 4 |
| Unp3-M1: Modified variant of Unp3, SEQ ID NO: 98 (MA[dR][dR][dK][dK]M[dK]G[dK][dR]D[dK][dR]VF[dK]QTAN[dK]T[dK]AINISP[dK]NM[dR]GGT[dR]L) |  |  |  | 4 | >64 | 8 | 4 | 8 | 16 | 8 |
| Unp4: SEQ ID NO: 94, Marine gokushovirus (MIVRRHKMSRRRSRKLFSKTASRTRSKNLRSRPMRGGYRI; listed as Marine gokushovirus) |  |  |  | 16 | 4 | 16 | 4 | 1 | 4 | 4 |
